Measured values from ChEMBL document CHEMBL1201861, “Genomics of Drug Sensitity in Cancer screening data, Wellcome Trust Sanger Institute”.

Tests used:
Assay in all cases: cells
Details in all cases: Homo sapiens
A388 = type: functional, cell-based;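 note: growth inhibition of human A388 cells, read out with a cell viability assay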
Description: SANGER: Inhibition of human A388 cell growth in a cell viability assay.

RPMI-8866 = type: functional, cell-based
Description: SANGER: Inhibition of human RPMI-8866 cell growth in a cell viability assay.

ES3 = type: functional, cell-based;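 note: growth inhibition of ES3 cells, read out with a cell viability assay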
Description: SANGER: Inhibition of human ES3 cell growth in a cell viability assay.

KLE = type: functional, cell-based;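 note: growth inhibition of human KLE cells, read out with a cell viability assay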
Description: SANGER: Inhibition of human KLE cell growth in a cell viability assay.

HT = type: functional, cell-based
Description: SANGER: Inhibition of human HT cell growth in a cell viability assay.

GI-1 = type: functional, cell-based;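 note: growth inhibition of human GI-1 cells, measured with a cell viability readout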
Description: SANGER: Inhibition of human GI-1 cell growth in a cell viability assay.

LXF-289 cell line = type: functional, cell-based
Description: SANGER: Inhibition of human LXF-289 cell growth in a cell viability assay.

TE-10 = type: functional, cell-based;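 note: growth inhibition of TE-10 cells, measured by a cell viability assay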
Description: SANGER: Inhibition of human TE-10 cell growth in a cell viability assay.

COLO-824 = type: functional, cell-based
Description: SANGER: Inhibition of human COLO-824 cell growth in a cell viability assay.

ES1 = type: functional, cell-based;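 note: growth inhibition of ES1 cells, read out with a cell viability assay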
Description: SANGER: Inhibition of human ES1 cell growth in a cell viability assay.

BB30-HNC = type: functional, cell-based;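 note: growth inhibition of the cultured cell line, read out by a cell viability assay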
Description: SANGER: Inhibition of human BB30-HNC cell growth in a cell viability assay.

QIMR-WIL = type: functional, cell-based;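 note: growth inhibition of QIMR-WIL cells, read out with a cell viability assay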
Description: SANGER: Inhibition of human QIMR-WIL cell growth in a cell viability assay.

KM12 = type: functional, cell-based;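 note: KM12 cell growth inhibition, read out with a cell viability assay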
Description: SANGER: Inhibition of human KM12 cell growth in a cell viability assay.

DU-4475 = type: functional, cell-based
Description: SANGER: Inhibition of human DU-4475 cell growth in a cell viability assay.

SK-PN-DW = type: functional, cell-based;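 note: growth inhibition measured with a viability assay on these cells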
Description: SANGER: Inhibition of human SK-PN-DW cell growth in a cell viability assay.

697 = type: functional, cell-based
Description: SANGER: Inhibition of human 697 cell growth in a cell viability assay.

COLO-829 = type: functional, cell-based
Description: SANGER: Inhibition of human COLO-829 cell growth in a cell viability assay.

Ramos-2G6-4C10 = type: functional, cell-based;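 note: growth inhibition of the cell line, measured by a cell viability read-out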
Description: SANGER: Inhibition of human Ramos-2G6-4C10 cell growth in a cell viability assay.

HCE-T = type: functional, cell-based;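 note: cell viability assay read-out, reporting inhibition of HCE-T cell growth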
Description: SANGER: Inhibition of human HCE-T cell growth in a cell viability assay.

GT3TKB = type: functional, cell-based;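 note: growth inhibition of the cell line, read out with a cell viability assay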
Description: SANGER: Inhibition of human GT3TKB cell growth in a cell viability assay.

LS-1034 = type: functional, cell-based
Description: SANGER: Inhibition of human LS-1034 cell growth in a cell viability assay.

A101D = type: functional, cell-based;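 note: growth inhibition of the cell line, measured with a viability assay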
Description: SANGER: Inhibition of human A101D cell growth in a cell viability assay.

KNS-81-FD = type: functional, cell-based;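 note: growth inhibition of KNS-81-FD cells, read out with a cell viability assay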
Description: SANGER: Inhibition of human KNS-81-FD cell growth in a cell viability assay.

L-428 = type: functional, cell-based
Description: SANGER: Inhibition of human L-428 cell growth in a cell viability assay.

UACC-257 = type: functional, cell-based
Description: SANGER: Inhibition of human UACC-257 cell growth in a cell viability assay.

ES4 = type: functional, cell-based;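 note: growth inhibition of human ES4 cells, read out by a cell viability assay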
Description: SANGER: Inhibition of human ES4 cell growth in a cell viability assay.

CCRF-CEM = type: functional, cell-based;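 note: inhibition of CCRF-CEM cell growth, measured by a cell viability assay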
Description: SANGER: Inhibition of human CCRF-CEM cell growth in a cell viability assay.

LS-411N = type: functional, cell-based
ONS-76 = type: functional, cell-based;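 note: growth inhibition of human ONS-76 cells, read out with a cell viability assay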
Description: SANGER: Inhibition of human ONS-76 cell growth in a cell viability assay.

ML-2 = type: functional, cell-based;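 note: growth inhibition of ML-2 cells, measured with a cell viability readout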
Description: SANGER: Inhibition of human ML-2 cell growth in a cell viability assay.

SNU-C2B = type: functional, cell-based;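 note: cell viability readout used to measure compound-driven suppression of SNU-C2B cell proliferation, IC50 marking half-maximal growth inhibition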
Description: SANGER: Inhibition of human SNU-C2B cell growth in a cell viability assay.

LB831-BLC = type: functional, cell-based;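 note: growth inhibition of LB831-BLC cells, read out with a cell viability assay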
Description: SANGER: Inhibition of human LB831-BLC cell growth in a cell viability assay.

MHH-PREB-1 = type: functional, cell-based;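 note: cell viability assay measuring inhibition of proliferation of human MHH-PREB-1 cells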
Description: SANGER: Inhibition of human MHH-PREB-1 cell growth in a cell viability assay.

SF-126 = type: functional, cell-based;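 note: growth inhibition of human SF126 cells, read out with a cell viability assay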
Description: SANGER: Inhibition of human SF126 cell growth in a cell viability assay.

MMAC-SF = type: functional, cell-based;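 note: growth inhibition of human MMAC-SF cells, read out with a cell viability assay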
Description: SANGER: Inhibition of human MMAC-SF cell growth in a cell viability assay.

HuTu80 = type: functional, cell-based, HUTU-80;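 note: growth inhibition of HuTu80 human cells, determined with a cell viability readout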
Description: SANGER: Inhibition of human HUTU-80 cell growth in a cell viability assay.

K562 = type: functional, cell-based
Description: SANGER: Inhibition of human K-562 cell growth in a cell viability assay.

HCE-4 = type: functional, cell-based;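 note: cell viability assay measuring inhibition of growth in the human HCE-4 cell line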
Description: SANGER: Inhibition of human HCE-4 cell growth in a cell viability assay.

C2BBe1 = type: functional, cell-based;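 note: growth inhibition of C2BBe1 cells, read out through a viability assay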
Description: SANGER: Inhibition of human C2BBe1 cell growth in a cell viability assay.

COLO-668 = type: functional, cell-based
Description: SANGER: Inhibition of human COLO-668 cell growth in a cell viability assay.

NB5 = type: functional, cell-based;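 note: growth inhibition of NB5 cells, read out as cell viability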
Description: SANGER: Inhibition of human NB5 cell growth in a cell viability assay.

TK-10 = type: functional, cell-based;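 note: growth inhibition of TK-10 cells, read out in a cell viability assay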
Description: SANGER: Inhibition of human TK10 cell growth in a cell viability assay.

NCI-H1395 = type: functional, cell-based;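 note: cell viability assay read-out quantifying reduced proliferation of human NCI-H1395 cells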
Description: SANGER: Inhibition of human NCI-H1395 cell growth in a cell viability assay.

A4-Fuk = type: functional, cell-based;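 note: growth inhibition of A4-Fuk cells, read out by a cell viability assay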
Description: SANGER: Inhibition of human A4-Fuk cell growth in a cell viability assay.

DOHH-2 = type: functional, cell-based;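 note: growth inhibition of human DOHH-2 cells, read out with a cell viability assay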
Description: SANGER: Inhibition of human DOHH-2 cell growth in a cell viability assay.

BB65-RCC = type: functional, cell-based;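 note: growth inhibition of the cell line, measured with a cell viability assay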
Description: SANGER: Inhibition of human BB65-RCC cell growth in a cell viability assay.

SNB-75 = type: functional, cell-based;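 note: cell viability assay measuring growth inhibition of human SNB-75 cells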
Description: SANGER: Inhibition of human SNB75 cell growth in a cell viability assay.

NB69 = type: functional, cell-based;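 note: growth inhibition of NB69 cells, determined by a cell viability assay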
Description: SANGER: Inhibition of human NB69 cell growth in a cell viability assay.

LOX IMVI = type: functional, cell-based
Description: SANGER: Inhibition of human LOXIMVI cell growth in a cell viability assay.

OCI-AML2 = type: functional, cell-based;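 note: growth inhibition of OCI-AML2 cells, read out with a cell viability assay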
Description: SANGER: Inhibition of human OCI-AML2 cell growth in a cell viability assay.

KM-H2 = type: functional, cell-based;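 note: growth inhibition of KM-H2 cells, read out by a cell viability assay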
Description: SANGER: Inhibition of human KM-H2 cell growth in a cell viability assay.

ACN = type: functional, cell-based;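 note: growth inhibition of the human ACN cell line, read out via cell viability testing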
Description: SANGER: Inhibition of human ACN cell growth in a cell viability assay.

TGBC24TKB = type: functional, cell-based;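 note: growth inhibition of human TGBC24TKB cells, read out with a cell viability assay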
Description: SANGER: Inhibition of human TGBC24TKB cell growth in a cell viability assay.

MFH-ino = type: functional, cell-based;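 note: growth inhibition of human MFH-ino cells, read out by a cell viability assay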
Description: SANGER: Inhibition of human MFH-ino cell growth in a cell viability assay.

ETK-1 = type: functional, cell-based;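 note: growth inhibition of human ETK-1 cells, read out with a cell viability assay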
Description: SANGER: Inhibition of human ETK-1 cell growth in a cell viability assay.

NCI-H226 = type: functional, cell-based;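 note: cell viability read-out used to gauge growth inhibition of the cells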
Description: SANGER: Inhibition of human NCI-H226 cell growth in a cell viability assay.

LB1047-RCC = type: functional, cell-based;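 note: inhibition of cell growth, determined with a cell viability assay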
Description: SANGER: Inhibition of human LB1047-RCC cell growth in a cell viability assay.

NB6 = type: functional, cell-based
Description: SANGER: Inhibition of human NB6 cell growth in a cell viability assay.

U-87 MG = type: functional, cell-based, U-87MG ATCC;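 note: growth inhibition of the cells measured with a viability assay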
Description: SANGER: Inhibition of human U-87-MG cell growth in a cell viability assay.

IA-LM = type: functional, cell-based;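 note: cell viability assay measuring growth inhibition of human IA-LM cells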
Description: SANGER: Inhibition of human IA-LM cell growth in a cell viability assay.

JVM-3 = type: functional, cell-based;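 note: growth inhibition of human JVM-3 cells, read out with a cell viability assay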
Description: SANGER: Inhibition of human JVM-3 cell growth in a cell viability assay.

TE-6 = type: functional, cell-based;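 note: growth inhibition of TE-6 cells, read out with a cell viability assay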
Description: SANGER: Inhibition of human TE-6 cell growth in a cell viability assay.

SHP77 = type: functional, cell-based, SHP-77;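 note: growth inhibition of human SHP-77 cells measured by a cell viability assay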
Description: SANGER: Inhibition of human SHP-77 cell growth in a cell viability assay.

DMS-114 = type: functional, cell-based
SW 954 = type: functional, cell-based;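 note: growth inhibition of SW954 human cancer cells, read out as cell viability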
Description: SANGER: Inhibition of human SW954 cell growth in a cell viability assay.

**Q.** What does the source list for `CC(C)=CC[C@@H](O)C1=CC(=O)c2c(O)ccc(O)c2C1=O` [SHIKONIN]?
**A.** IC50 (A388): 867 nM; IC50 (RPMI-8866): 536 nM; IC50 (ES3): 656 nM; IC50 (KLE): 685 nM; IC50 (HT): 1090 nM; IC50 (GI-1): 568 nM; IC50 (LXF-289 cell line): 3.27 µM; IC50 (TE-10): 986 nM; IC50 (COLO-824): 715 nM; IC50 (ES1): 503 nM; IC50 (BB30-HNC): 243 nM; IC50 (QIMR-WIL): 182 nM; IC50 (KM12): 740 nM; IC50 (DU-4475): 180 nM; IC50 (SK-PN-DW): 36.5 nM; IC50 697: 876 nM; IC50 (COLO-829): 658 nM; IC50 (Ramos-2G6-4C10): 315 nM; IC50 (HCE-T): 720 nM; IC50 (GT3TKB): 346 nM; IC50 (LS-1034): 2750 nM; IC50 (A101D): < 62.5 nM; IC50 (KNS-81-FD): 1080 nM; IC50 (L-428): 1210 nM; IC50 (UACC-257): > 16 µM; IC50 (ES4): 4.63 µM; IC50 (CCRF-CEM): 567 nM; IC50 (LS-411N): 3.19 µM; IC50 (ONS-76): 358 nM; IC50 (ML-2): 618 nM; IC50 (SNU-C2B): > 16 µM; IC50 (LB831-BLC): 1920 nM; IC50 (MHH-PREB-1): 252 nM; IC50 (SF-126): 773 nM; IC50 (MMAC-SF): 752 nM; IC50 (HuTu80): 370 nM; IC50 (K562): > 16 µM; IC50 (HCE-4): 389 nM; IC50 (C2BBe1): 756 nM; IC50 (COLO-668): 6.2 µM; IC50 (NB5): 2430 nM; IC50 (TK-10): 1220 nM; IC50 (NCI-H1395): > 16 µM; IC50 (A4-Fuk): 250 nM; IC50 (DOHH-2): 706 nM; IC50 (BB65-RCC): 695 nM; IC50 (SNB-75): 746 nM; IC50 (NB69): 213 nM; IC50 (LOX IMVI): 412 nM; IC50 (OCI-AML2): 298 nM; IC50 (KM-H2): 1040 nM; IC50 (ACN): 917 nM; IC50 (TGBC24TKB): > 16 µM; IC50 (MFH-ino): 864 nM; IC50 (ETK-1): 2450 nM; IC50 (NCI-H226): 645 nM; IC50 (LB1047-RCC): 302 nM; IC50 (NB6): 454 nM; IC50 (U-87 MG): 1280 nM; IC50 (IA-LM): 2080 nM; IC50 (JVM-3): > 16 µM; IC50 (TE-6): 2970 nM; IC50 (SHP77): 446 nM; IC50 (DMS-114): > 16 µM; IC50 (SW 954): 467 nM
